Test results from patent US6539252B1, “Method and apparatus for the treatment of blood borne pathogens such as immunodeficiency virus” (priority 1996, dated 2003).

Key:
[1] = human blood serum; cited from earlier work
[2] = tested on: HIV virus; test: treatment of HIV infected human subjects with electrically generated silver ions; viral load by RNA PCR quantification, T4 cell count; assay type: in vivo
Description: The present invention operates by providing a low intensity direct current to electrode 35. By placing the electrode pad 98 on the surface of the patient in the vicinity of electrode 35, the low intensity direct current will cause the electrode 35 to act as an anode, thereby releasing metal ions into the bloodstream of the patient. These positively charged metal ions are attracted to the negative polarity of the virus, thereby destabilizing it, as discussed above. […] The use of such a large blood vessel is preferred because metal ions such as the preferred silver ion have a half life of approximately seven seconds. The device as will be seen below, creates an average output of four-hundred billion silver cations per second. With an average blood volume of four liters passing by the electrode 35 approximately twice per minute, the probability of a virus passing by the electrode 35 and being bonded to a metal ion increases when the volume of blood available to carry the virus is higher.
(§1) To balance the need for large numbers of silver ions with the need to keep the amount of silver within safer ranges for humans, the power supply 110 supplies two and one-half microamps of current for twelve minutes at the beginning of treatment. This produces 1.56×10(13) ions of silver per second. During the twelve minutes (i.e., seven-hundred twenty seconds) that the power supply 110 supplies two and one-half microamps of current, 0.0018 Coulombs enters the bloodstream (i.e., seven-hundred and twenty seconds multiplied by two and one-half microamps). Under Faraday's law, one mole of silver ions equals 96485 Coulombs. Further, one mole of silver ions weighs 107.87 grams. Thus, in the initial twelve minute operating period, nearly two micrograms (1.94 micrograms) of silver ions are introduced into the bloodstream.
After the initial twelve minute operating period, the low intensity direct current provided by power supply 110 is reduced to one-hundred twenty five nanoamps. This causes the production of silver ions to be produced at a rate of seven-hundred seventy-four billion ions per second. Under a preferred embodiment of the present invention, this level of electric current is maintained for a period of seventy-one hours and forty-eight minutes. During this time (i.e., 258,480 seconds) that the power supply 110 supplies one-hundred twenty-five nanoamps of current, […] enters the bloodstream (i.e., 258,480 seconds multiplied by one-hundred twenty-five nanoamps). Under Faraday's law, one mole of silver ions equals 96485 Coulombs. Further, one mole of silver ions weighs 107.87 grams. Thus, during this entire period, only approximately 36.1 micrograms of silver ions are introduced into the bloodstream. Thus, in the entire seventy-two hour treatment, only 38.1 micrograms of silver have been introduced into the patient's bloodstream.
In a first example, the human patient had 2,165,823 copies of the HIV virus per milliliter of blood by the RNA PCR quantification test method. In addition, this patient's T4 cell (Helper) count was at 18. This particular subject was experiencing serious kidney malfunction prior to treatment. Twenty-four hours after treatment, this patient's viral load was reduced to 1,336,817 copies of the HIV virus per milliliter of blood while the T4 cell count was 11. Because of this patient's kidney malfunction, it was suspected that most of the viral copies detected during the RNA PCR quantization test had been denatured but had not yet been removed from the patient by the kidneys. Thus, one month after treatment, the viral load was measured again and found to be reduced to 621,215 copies of the HIV virus per milliliter of blood.
Thus, the electrode 35 was placed in the subclavian vein. This patient was subjected to twelve minutes of treatment at 2.5 microamps and then only forty-seven hours and forty-eight minutes of treatment at one-hundred twenty-five nanoamps. […]

[3] = tested on: eukaryotic microorganisms; conditions: levels as low as; cited from earlier work
[4] = tested on: mammalian cells; conditions: at less than twenty parts per billion in the blood stream; cited from earlier work
[5] = calculated silver content in blood serum during treatment; assay type: in vivo, human; conditions: by Faraday's law
Description: as §1
After the initial twelve minute operating period, the low intensity direct current provided by power supply 110 is reduced to one-hundred twenty five nanoamps. This causes the production of silver ions to be produced at a rate of seven-hundred seventy-four billion ions per second. Under a preferred embodiment of the present invention, this level of electric current is maintained for a period of seventy-one hours and forty-eight minutes. […]

[6] = tested on: bacterial pathogens; conditions: silver ions generated in small quantities in the blood stream; cited from earlier work
[7] = tested on: feline immunodeficiency virus (FIV); test: treatment of a cat infected with feline immunodeficiency virus; assay type: in vivo; conditions: seven year old male cat with FIV; about four micrograms silver in 24 min, then one-half microgram per hour for 90 min
Description: The methods of this invention have also been successfully tested on a different virus and a different host: namely, a cat infected with feline immunodeficiency virus (“FIV”). A seven year old male house cat weighing ten pounds and ten and three-quarter ounces had “heavy third eyelid”, some hair loss, eleven bite marks along his back and rump, and a wound to the top of the ear, all indicative of acute disease. The cat was anesthetized with ketamine, a catheter was placed in the neck, and the negative electrode was placed on the underchest. Approximately four micrograms of silver was delivered in twenty-four minutes, followed by one-half a microgram of silver per hour for ninety minutes.

Q: What does the source list for `[Ag+]` [silver ions]?
A: silver in the blood serum humans can withstand without a toxic reaction [1]: thirty to eighty; clinical outcome after treatment ([2]; first human patient): immediately felt improved health, was able to eat solid food, and experienced a dramatic increase in quality of life; viral load ([2]; first human patient, kidney malfunction, baseline 2,165,823, twenty-four hours after treatment, RNA PCR): 1,336,817 copies of the HIV virus per milliliter of blood; T4 cell count ([2]; first human patient, baseline 18, twenty-four hours after treatment): 11; viral load ([2]; first human patient, baseline 2,165,823, one month after treatment): 621,215 copies of the HIV virus per milliliter of blood; clinical outcome after treatment ([2]; second human subject): immediately felt improved health and was able to eat solid food; viral load ([2]; second human subject, electrode in subclavian vein, 12 min at 2.5 microamps then 47 h 48 min at 125 nanoamps, baseline 1,814,466, forty-eight hours after treatment, RNA PCR): 394,972 copies of the HIV virus per milliliter of blood; T4 cell count ([2]; second human subject, baseline 17, forty-eight hours after treatment): 18; clinical outcome after treatment ([2]; third human subject, also on AZT): immediately felt improved health, was able to eat solid food, and experienced a dramatic increase in quality of life; T4 cell count ([2]; third human subject, also on AZT, baseline 5, twenty-four hours after treatment): 6; viral load ([2]; third human subject, also undergoing treatment with AZT, 12 min at 2.5 microamps then 70 h 18 min at 125 nanoamps, baseline 693,832, twenty-four hours after treatment, RNA PCR): 634 copies of the HIV virus per milliliter of blood; level toxic to eukaryotic microorganisms [3]: one to five; toxicity to mammalian cells [4]: totally nontoxic; silver content in the blood serum ([5]; entire seventy-two hour treatment (38.1 micrograms silver)): less than nine; silver content in the blood serum ([5]; initial twelve minutes at two and one-half microamps (1.94 micrograms silver)): less than five; quantity in the blood stream effective in destroying bacterial pathogens [6]: less than twenty; clinical outcome the next morning [7]: returned to normal activity and appetite
